For one data set, the target named is T1, MMP-13 (Homo sapiens, UniProt P45452).
T1 construct: purchased AnaSpec AS-72257
Put plainly: SensoLyte 520 fluorimetric selectivity assay, MMP-13. It is filed as biochemical. The settings on record: agents tested at 25 nM or at 4 nM. As for the experimental part:
(§1) FIG. 2. […] For each indicated enzyme, agents were tested at 25 nM or at 4 nM and percent inhibition was measured using the catalytic domains of the respective enzyme and the SensoLyte® 520 Fluorimetric Assay Kit (Anaspec).
(§2) Enzymatic assays to profile the inhibitory effects of all the compounds on hMMP-12, and against a panel of 5 closely related MMPs (MMP-1, MMP-3, MMP-9, MMP-13, and MMP-14) were performed using the SensoLyte® 520 Fluorimetric Assay Kit (AnaSpec) for each MMPs. Assay kit for MMP-12 Cat. #AS-71157, MMP-1 Cat. #AS-71150, MMP-3 Cat. #AS-71152, MMP-9 Cat. #AS-71155, MMP-13 Cat. #AS-71156, and MMP-14 Cat. #AS-72025. The assay was performed according to their protocols. Briefly, 10 ng of each MMPs were incubated on a black flat-bottom 96-well plate (Cat. #9502867) at RT for 15 minutes in absence or in presence of different concentration of each compound in a total volume of 50 μL. After 15 minutes, 50 μL of each substrate solution were added. The reagents were mixed together by shaking the plate gently for 30 sec. Immediately after the fluorescence was measured using the VICTOR X5 microplate reader (PerkinElmer) every 3 min for 60 min. All the measurement were performed in duplicates. The IC50 values were calculated from dose-response curves using GraphPad Prism 7.

In the next data set the target is T2, hMMP-12 (Homo sapiens, UniProt P39900).
T2 construct: The catalytic domain (Gly106-Gly263) of human macrophage metalloelastase (hMMP-12); made in house; host or cells: E. coli BL21 Codon Plus (pET21 vector, NdeI/BamHI)
Put plainly: SensoLyte 520 MMP-12 fluorimetric enzyme inhibition assay. Conditions: for IC50: catalytic domain, tested side by side. It is filed as biochemical.

A short description of data set [1]: Solubility in dosing formulation. The format is physicochemical. Conditions: 10% DMSO, 40% PEG400, 10% (2-hydroxypropyl)-Beta-cyclodextrin in PBS. As for the experimental part: (§3) Compound 25 was administered i.p. (30 mg/kg) to 5 Balb-C mice. Retrorbital bleeding was used to collect blood samples at times 30 min, 1 h, 2 h, 4 h, 8 h, and 24 h and the samples analyzed for compound 25 plasma concentration via extraction followed by LC/MS and compared to a standard calibration curve prepared with purified agent. Compound 25 was soluble in 10% DMSO, 40% PEG400, and 10% (2-hydroxypropyl)-Beta-cyclodextrin in PBS. Mice weight varied between 22 g and 26 g, each receiving approximately 200 μL (weight adjusted to administer 30 mg/Kg of compound 25) of formulated agent. The experiments were conducted at the University of California San Diego in vivo pharmacology core facility, according to a UCSD Institutional Animal Care and Use Committee (IACUC) approved protocol.

A further data set concerns the target T3, MMP-3 (Homo sapiens, UniProt P08254).
T3 construct: purchased AnaSpec 72006
Briefly: SensoLyte 520 fluorimetric selectivity assay, MMP-3. It is filed as biochemical. The settings on record: agents tested at 25 nM or at 4 nM. Here is the method: as §1, §2

In a further data set the target is T4, MMP-1 (Homo sapiens, UniProt P03956).
T4 construct: purchased AnaSpec AS-55575-1
T4 sequence (P03956 100-269 limits assumed): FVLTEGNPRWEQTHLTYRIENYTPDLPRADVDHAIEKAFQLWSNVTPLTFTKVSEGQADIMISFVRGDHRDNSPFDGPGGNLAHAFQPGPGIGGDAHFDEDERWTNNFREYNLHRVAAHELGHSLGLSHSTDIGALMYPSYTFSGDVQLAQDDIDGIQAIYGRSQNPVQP
Briefly: SensoLyte 520 fluorimetric selectivity assay, MMP-1. It is filed as biochemical. The settings on record: agents tested at 25 nM or at 4 nM. Here is the method: as §1, §2

The target of the next data set is T5, MMP-9 (Homo sapiens, UniProt P14780).
T5 construct: purchased AnaSpec AS-55576-1
Briefly: SensoLyte 520 fluorimetric selectivity assay, MMP-9. The settings on record: agents tested at 25 nM or at 4 nM. The format is biochemical. Here is the method: as §1, §2

The nature of data set [2]: Preliminary pharmacokinetic study in mice. The format is in vivo, Balb-C mice. Here is the method:
as §3

Data set [3] concerns murine model of elastase-induced emphysema. Briefly: Murine model of elastase-induced emphysema, mean linear intercept analysis. The settings on record: i.p. once daily for 7 days from day 2 after PPE, day 21. It is filed as in vivo, C57BL/6 mice. As for the experimental part:
C57BL/6 mice were purchased from Jackson Laboratories (Bar Harbor, Me.) and maintained in a pathogen-free vivarium at room temperature with 12-hour light/dark cycles. All mice were 6-8 weeks and both male and female mice were used for the experiment. All animal-use and euthanasia protocols were approved by the UC Riverside Institutional Animal Care and Use Committee (IACUC).
C57BL/6 mice were given a single intranasal instillation with 50 μl of saline or 0.9 U porcine pancreas elastase (Sigma-Aldrich, St. Louis, Mo.) diluted in phosphate buffered saline (IX PBS). Two days following the instillation, mice were treated with 200 μl of vehicle control, MMP-408, compound 25, or compound 26 via intraperitoneal injection. Mice were continually given treatment once a day for 7 consecutive days. Twenty-one days following the initial intranasal instillation, mice were sacrificed. Bronchoalveolar lavage fluid (BALF) was collected by making an incision in the trachea and inserting a cannula with syringe (BD Biosciences, CA), then washing with 1 mL of cold PBS three times. BALF was centrifuged at 1200 RPM for 5 minutes, then cell pellets were combined and resuspended in 200 μl of PBS to be used in cell counts and cell differential analysis. The lungs were isolated, slowly filled with 1 mL of 10% formalin then hung in formalin overnight for fixation. The following day, lungs were moved into 70% ethanol and stored at 4° C. until paraffin-embedding.
Mouse lungs were fixed in formalin and paraffin-embedded, then sectioned and stained in hematoxylin and eosin by the University of California Irvine Department of Pathology Experimental Tissue Resource Core Facility. The lungs were imaged on a Revolve light microscope (La Jolla, Calif.) at 10× magnification. MLI measurements were calculated using an established indirect method on ImageJ software. Briefly, alveolar walls/intersections were counted along a line of known length, then length was divided by the number of intersections to calculate MLI. This process was repeated for a total of five MLI measurements per image, with there being four images per mouse lung. The average MLI measurement for each lung was calculated and statistically analyzed using GraphPad Prism software (San Diego, Calif.).

The target of the next data set is T6, MMP-14 (Homo sapiens, UniProt P50281).
T6 construct: purchased AnaSpec AS-72068
Briefly: SensoLyte 520 fluorimetric selectivity assay, MMP-14. The format is biochemical. Conditions: agents tested at 25 nM or at 4 nM. Here is the method:
as §1, §2

Setting [4] is: 30 mg/kg intraperitoneally, mice.

In general, IC50 refers to the point on the concentration scale where inhibition reaches its midpoint. A low value points to greater potency.

T2 sequence (P39900 106-263): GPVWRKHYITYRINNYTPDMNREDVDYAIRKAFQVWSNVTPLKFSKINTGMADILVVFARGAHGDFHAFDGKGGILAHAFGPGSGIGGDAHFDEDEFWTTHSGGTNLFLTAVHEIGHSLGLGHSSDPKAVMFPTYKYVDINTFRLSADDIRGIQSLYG
T3 sequence (P08254 100-272 limits assumed): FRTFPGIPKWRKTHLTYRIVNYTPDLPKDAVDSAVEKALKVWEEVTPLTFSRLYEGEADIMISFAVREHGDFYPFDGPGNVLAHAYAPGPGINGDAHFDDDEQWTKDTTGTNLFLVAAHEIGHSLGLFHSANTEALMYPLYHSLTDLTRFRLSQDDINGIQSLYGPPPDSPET
T5 sequence (P14780 107-444 limits assumed): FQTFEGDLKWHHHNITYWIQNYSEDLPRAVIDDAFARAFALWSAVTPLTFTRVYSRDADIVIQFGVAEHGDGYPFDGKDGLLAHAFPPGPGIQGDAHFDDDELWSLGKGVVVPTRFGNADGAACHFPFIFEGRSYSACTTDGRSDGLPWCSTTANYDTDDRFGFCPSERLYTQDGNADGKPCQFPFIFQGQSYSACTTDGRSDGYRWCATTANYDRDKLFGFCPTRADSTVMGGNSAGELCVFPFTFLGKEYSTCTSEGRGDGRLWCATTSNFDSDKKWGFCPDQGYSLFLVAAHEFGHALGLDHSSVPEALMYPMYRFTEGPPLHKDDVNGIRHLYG

Regarding `COc1ccc(CC[C@@H](NC(=O)[C@H](CCCc2ccccc2)NC(=O)CN2CCOCC2)C(=O)N[C@H](Cc2ccc(C)cc2)C(=O)NO)cc1` [Compound 25], the “inhibition of MMP-13” value at MMP-13 is “did not display significant inhibition”. In addition, on hMMP-12, the “mode of MMP-12 inhibition” value was “competitive inhibitors” and the IC50 was ~4 nM. In addition, the solubility in formulation result in data set [1] is “soluble”. In addition, the “inhibition of MMP-3” value on MMP-3 is “appreciable inhibition”. Moreover, at MMP-1, the “inhibition of MMP-1” value is “did not display significant inhibition”. The “inhibition of MMP-9” value on MMP-9 is “did not display significant inhibition”. In data set [2] (setting [4]), the “peak plasma drug concentration” value was ~400 ng/mL and the “peak plasma drug concentration (molar)” value is on record as ~580 nM. In addition, the “peak plasma concentration relative to in vitro IC90” value in [2] (mouse, in vivo) is on record as > 20 times. For the same compound, in data set [3], the “MLI measurements compared to saline (no PPE)-treated mice” value was “no significant differences” and the “emphysema-like pathology compared to PPE+vehicle-treated mice” value is on record as “significant decrease”. Further, the “inhibition of MMP-14” value on MMP-14 is listed as “did not display significant inhibition”.

Turning to `COC(=O)Nc1ccc2oc3cc(S(=O)(=O)N[C@H](C(=O)O)C(C)C)ccc3c2c1` [MMP408, reference compound], in [3], the “MLI measurements compared to saline (no PPE)-treated mice” value is listed as “no significant differences” and the “emphysema-like pathology compared to PPE+vehicle-treated mice” value is reported as “significant decrease”.

As for `CNC(=O)[C@H](Cc1c[nH]c2ccccc12)NC(=O)[C@@H](CC(=O)NO)CC(C)C` [GM6001, reference compound], the IC50 on hMMP-12 is ~2.5 nM. Besides, on MMP-3, the “inhibition of MMP-3” value is “appreciable inhibition”.

As for `COc1ccc(CCC[C@H](NC(=O)CN2CCOCC2)C(=O)N[C@H](CCc2ccc(OC)cc2)C(=O)N[C@H](Cc2ccc(C)cc2)C(=O)NO)cc1` [Compound 26], the “inhibition of MMP-13” value against MMP-13 was “did not display significant inhibition”. Besides, on hMMP-12, the “mode of MMP-12 inhibition” value is reported as “competitive inhibitors” and the IC50 is ~4 nM. For the same compound, the “inhibition of MMP-3” value against MMP-3 is “appreciable inhibition”. Moreover, the “inhibition of MMP-1” value at MMP-1 is given as “did not display significant inhibition”. Moreover, the “inhibition of MMP-9” value against MMP-9 is “did not display significant inhibition”. Further, in data set [3], the “MLI measurements compared to saline (no PPE)-treated mice” value was “no significant differences” and the “emphysema-like pathology compared to PPE+vehicle-treated mice” value is given as “significant decrease”. The “inhibition of MMP-14” value on MMP-14 is “did not display significant inhibition”.
